Counter-ions that a name gives are not always drawn. Values belong to the compound of their own block, whether it stands above or below them.
Tests used:
Format in all cases: physicochemical
[1] = Solubility and pH of salts of 4-9 prepared in situ; conditions: for solubility: 1.05 mole equivalents of acid, 100 μL of water, spun overnight, HPLC; for pH: pH of the liquid residue of the sample
Experimental: Two forms of the mesylate salt were made: Salt 4-9A above and Salt 4-9B below. Numerous salts of 4-9 were prepared in situ and analyzed using the procedure outlined below,
3) The reagents were mixed with a Vortex mixer and left to stand at room temperature or warmed if needed to dissolve the solid.
4) 100 μL of water were added to suspend the solid.
5) Tube was then covered with aluminum foil and spun overnight on a rotator.
6) The tube was then spun in a centrifuge for 10 minutes at 10,000 RPM.
7) An aliquot was removed from the sample and dried with nitrogen overnight to produce the solid residue (salt) which was analyzed via microscopy and DCS.
8) The liquid residue from the remaining sample was used to measure pH and determine the concentration of salt by HPLC.

[2] = Measurement of salt solubility: free base 1-11 treated with acid, suspended in water, HPLC; conditions: for pH: pH in equilibrium with the solid phase, most likely lower than pH of the salt in water; for solubility: salt made in situ with 1.05-1.1 molar equivalence of acid, suspended in water several days, method overestimates the solubility
Experimental: The pH and concentration of the compound in equilibrium with the solid phase was measured by HPLC (UV-Vis detection).

[3] = Solubility of free base 1-11 at room temperature in 0.05M aqueous buffers, water, organic solvents and HPβCD
Experimental: The solubility of 1-11 at room temperature was determined in 0.05M aqueous buffers, water and several organic solvents.

[4] = Solubility of crystalline mesylate salts 1-11A and 1-11B
Experimental: The amorphous mesylate salt was recrystallized from 50:50 Ethanol:THF to give a crystalline powder (Salt 1-11A). The X-ray powder diffraction pattern (XRPD) of the recrystallized mesylate salt 1-11A (FIG. 2) is indicative of crystalline material with multiple diffraction peaks between 5° and 30° 2-theta.
A second batch of crystalline mesylate salt (Salt 1-11B) was obtained by the following procdeure. To a stirred suspension of 1-11 (4.026 g, 9.22 mmol) in MeOH was slowly added at room temperature (RT) one equivalent of a 0.3M solution of methanesulfonic acid (30.73 mL). After all the solid had dissolved, the mixture was filtered into a flask and concentrated under reduced pressure while cooled to about 10° C. The resulting solid was suspended with 200 mL of ethylacetate, filtered, and dried to afford the mesylate salt. […] This crystalline form is different by XRPD than the one recrystallized from the amorphous salt in EtOH/THF (Salt 1-11A).

[5] = Aqueous solubility at room temperature, quantitated by HPLC; conditions: for aqueous solubility at room temperature / solubility: water, HPLC, room temperature; for crystallization out of the concentrated aqueous solution: time scale of the experiment (24 hours); for solubility: thermodynamic from solid
Experimental: The free base 2-1 is a yellow powder. […] The crystals appear plate-like with most of the particles below 10 microns. […] The aqueous solubility was measured using HPLC to quantitate the compound in suspension.
The mesylate salt 2-1A is a yellow powder. […] A broad non-reversible endotherm centered around 87° C. is attributed to loss of solvent/moisture. The aqueous solubility was measured using HPLC to quantitate the compound.
The HCl salt 2-1B was also a yellow powder. […] This indicates the presence of both amorphous and crystalline material. […] The aqueous solubility was measured using HPLC to quantitate the compound.
The free base is a yellow powder which contains particles that are birefringent under polarized light indicating the presence of crystalline material. […] The aqueous solubility was measured using HPLC to quantitate the compound in an aqueous suspension.
The HCl salt is also a yellow solid, which contains particles that are birefringent under polarized light indicating the presence of crystalline material. […] The aqueous solubility was measured using HPLC to quantitate the compound in suspension.
The yellow, mesylate salt was examined under polarized light by optical microscopy. […] It is possible that the small amount of crystalline solid went undetected by optical microscopy. The aqueous solubility was measured using HPLC to quantitate the compound in suspension.
This mesylate salt 4-9A, which is a yellow powder, was examined under polarized light by optical microscopy. The crystals appear birefringent under polarized light indicating crystallinity. The crystals appear plate-like with few agglomerates. […] The aqueous solubility was measured using HPLC to quantitate the compound in suspension.

- aqueous solubility at room temperature [5]: 28 µg/mL
Structure (SMILES): CN1CCN(Cc2ccc3[nH]c(-c4cc5ccccc5[nH]c4=O)cc3c2)CCC1=O [Salt 2-1, 3-[5-(4-Methyl-5-oxo-[1,4]diazepan-1-ylmethyl)-1H-indol-2-yl]-1H-quinolin-2-one]

- crystallization out of the concentrated aqueous solution [5]: no crystallization was observed
- aqueous solubility at room temperature [5]: greater than 9.89 mg/mL
Structure (SMILES): CN1CCN(Cc2ccc3[nH]c(-c4cc5ccccc5[nH]c4=O)cc3c2)CCC1=O [Salt 2-1A, 4-Methyl-5-oxo-1-[2-(2-oxo-1.2-dihydro-quinolin-3-yl)-1H-indol-5-ylmethyl]-[1,4]diazepan-1-ium; methanesulfonate; methanesulfonate]

- crystallization out of the concentrated aqueous solution [5]: did not crystallize out
- solubility [5]: > 10200 µg/mL
Structure (SMILES): CN1CCN(Cc2ccc3[nH]c(-c4cc5ccccc5[nH]c4=O)cc3c2)CCC1=O.Cl [Salt 2-1B, 4-Methyl-5-oxo-1-[2-(2-oxo-1,2-dihydro-quinolin-3-yl)-1H-indol-5-ylmethyl]-[1,4]diazepan-1-ium; methanesulfonate; chloride]

- aqueous solubility at room temperature [5]: 63.5 µg/mL
Structure (SMILES): O=C(CO)N1CCN(Cc2ccc3[nH]c(-c4cc5ccccc5[nH]c4=O)cc3c2)CC1 [Salt 3-10, 3-{5-[4-(2-Hydroxy-ethanoyl)-piperazin-1-ylmethyl]-1H-indol-2-yl}-1H-quinolin-2-one]

- aqueous solubility at room temperature [5]: 1310 µg/mL
Structure (SMILES): O=C(CO)N1CCN(Cc2ccc3[nH]c(-c4cc5ccccc5[nH]c4=O)cc3c2)CC1 [Salt 3-10A, 4-(2-Hydroxy-ethanoyl) 1-[2-(2-oxo-1,2-dihydro-quinolin-3-yl)-1H-indol-5-ylmethyl]-piperazin-1H-ium; chloride]

- aqueous solubility at room temperature ([5]; methanesulfonate): 2430 µg/mL
Structure (SMILES): O=C(CO)N1CCN(Cc2ccc3[nH]c(-c4cc5ccccc5[nH]c4=O)cc3c2)CC1 [Salt 3-10B, 4-(2-Hydroxy-ethanoyl)-1-[2-(2-oxo-1,2-dihydro-quinolin-3-yl)-1H-indol-5-ylmethyl]-piperazin-1-ium; methanesulfonate]

- solubility [5]: 1500 µg/mL
Structure (SMILES): COCCN(C)CCOc1ccc2[nH]c(-c3cc4ccccc4[nH]c3=O)cc2c1.CS(=O)(=O)O [Salt 4-9A, 2-methoxy-N-methyl-N-(2-{[2-(2-oxo-1,2-dihydroquinolin-3-yl)-1H-indol-5-yl]oxy}ethyl)ethanaminium methanesulfonate]

- solubility [1]: 4350 µg/mL
- pH [1]: 1.40
Structure (SMILES): COCCN(C)CCOc1ccc2[nH]c(-c3cc4ccccc4[nH]c3=O)cc2c1 [Sulfate salt of 4-9]

Second part, the compound before the results:

Structure (SMILES): COCCN(C)CCOc1ccc2[nH]c(-c3cc4ccccc4[nH]c3=O)cc2c1 [4-9 Free Base, 3-(5-{2-[(2-methoxyethyl)(methyl)amino]ethoxy}-1H-indol-2-yl)-2(1H)-quinolinone]
- solubility ([1]; pH 6.75, thermodynamic from solid, read-out: Solubility): 75 µg/mL
- pH [1]: 6.75

Structure (SMILES): CS(=O)(=O)N1CCN(Cc2ccc3[nH]c(-c4cc5ccccc5[nH]c4=O)cc3c2)CC1 [Acetate salt of 1-11]
- pH [2]: 3.3
- solubility [2]: 91 µg/mL

Structure (SMILES): CS(=O)(=O)N1CCN(Cc2ccc3[nH]c(-c4cc5ccccc5[nH]c4=O)cc3c2)CC1 [Besylate salt of 1-11]
- pH [2]: 2.4
- solubility [2]: 3.8 µg/mL

Structure (SMILES): CS(=O)(=O)N1CCN(Cc2ccc3[nH]c(-c4cc5ccccc5[nH]c4=O)cc3c2)CC1 [HBr salt of 1-11]
- pH [2]: 2.9
- solubility [2]: 200 µg/mL

Structure (SMILES): CS(=O)(=O)N1CCN(Cc2ccc3[nH]c(-c4cc5ccccc5[nH]c4=O)cc3c2)CC1 [HCl salt of 1-11]
- pH [2]: 2.3
- solubility [2]: 430 µg/mL

Structure (SMILES): COCCN(C)CCOc1ccc2[nH]c(-c3cc4ccccc4[nH]c3=O)cc2c1 [HCl salt of 4-9]
- solubility [1]: 22400 µg/mL
- pH [1]: 2.34

Structure (SMILES): CS(=O)(=O)N1CCN(Cc2ccc3[nH]c(-c4cc5ccccc5[nH]c4=O)cc3c2)CC1 [Maleate salt of 1-11]
- pH [2]: 2.5
- solubility [2]: 160 µg/mL

Structure (SMILES): COCCN(C)CCOc1ccc2[nH]c(-c3cc4ccccc4[nH]c3=O)cc2c1 [Mesylate 4-9B]
- solubility [1]: 22000 µg/mL
- pH [1]: 5.08

Structure (SMILES): CS(=O)(=O)N1CCN(Cc2ccc3[nH]c(-c4cc5ccccc5[nH]c4=O)cc3c2)CC1 [Mesylate salt of 1-11]
- pH [2]: 2.3
- solubility [2]: 580 µg/mL

Structure (SMILES): CS(=O)(=O)N1CCN(Cc2ccc3[nH]c(-c4cc5ccccc5[nH]c4=O)cc3c2)CC1 [Salt 1-11, 3-[5-(4-Methanesulfonyl-piperazin-1-ylmethyl)-1H-indol-2-yl]-1H-quinolin-2-one]
- solubility ([3]; 0.05 M carbonate buffer, pH 10.09, aqueous buffer, 0.05 M Carbonate, pHfinal 10.09, room temperature): 79 µg/mL
- solubility ([3]; 0.05 M carbonate buffer, pH 11.15, aqueous buffer, 0.05 M Carbonate, pHfinal 11.15, room temperature): 77 µg/mL
- solubility ([3]; 0.05 M citrate buffer, pH 3.23, aqueous buffer, 0.05 M Citrate, pHfinal 3.23, room temperature): 92 µg/mL
- solubility ([3]; 0.05 M citrate buffer, pH 4.15, aqueous buffer, 0.05 M Citrate, pHfinal 4.15, room temperature): 73 µg/mL
- solubility ([3]; 0.05 M citrate buffer, pH 5.07, aqueous buffer, 0.05 M Citrate, pHfinal 5.07, room temperature): 70 µg/mL
- solubility ([3]; 0.05 M citrate buffer, pH 6.01, aqueous buffer, 0.05 M Citrate, pHfinal 6.01, room temperature): 71 µg/mL
- solubility ([3]; 0.05 M phosphate buffer, pH 6.96, aqueous buffer, 0.05 M Phosphate, pHfinal 6.96, room temperature): 71 µg/mL
- solubility ([3]; 0.05 M phosphate buffer, pH 7.93, aqueous buffer, 0.05 M Phosphate, pHfinal 7.93, room temperature): 74 µg/mL
- solubility ([3]; 0.05 M phosphate buffer, pH 8.86, aqueous buffer, 0.05 M Phosphate, pHfinal 8.86, room temperature): 73 µg/mL
- solubility ([3]; 25% HPβCD in water, aqueous with cosolvent or surfactant or cyclodextrin, 25% HPβCD, native pH in water (pH = 7.5)): 168 µg/mL
- solubility ([3]; 50% aqueous Can (probably ACN, acetonitrile), aqueous with cosolvent or surfactant or cyclodextrin, 50% Aqueous Can, room temperature): 60 µg/mL
- solubility ([3]; Water, room temperature): 0.03 µg/mL
- solubility ([3]; organic solvent or mixture, Acetonitrile, room temperature): 84 µg/mL
- solubility ([3]; organic solvent or mixture, Ethanol, room temperature): 19 µg/mL
- solubility ([3]; organic solvent or mixture, Isopropanol, room temperature): 6.5 µg/mL
- solubility ([3]; pH 2.45, simulated gastric fluid, 0.01 N HCl, pHfinal 2.45, room temperature): 400 µg/mL
- solubility ([3]; pH 3, aqueous with cosolvent or surfactant or cyclodextrin, 10% HPβCD, pH adjusted to ca. 3.0 with HCl): 1740 µg/mL
- solubility ([3]; pH 3, aqueous with cosolvent or surfactant or cyclodextrin, 15% HPβCD, pH adjusted to ca. 3.0 with HCl): 2350 µg/mL
- solubility ([3]; pH 3, aqueous with cosolvent or surfactant or cyclodextrin, 20% HPβCD, pH adjusted to ca. 3.0 with HCl): 3570 µg/mL
- solubility ([3]; pH 3, aqueous with cosolvent or surfactant or cyclodextrin, 25% HPβCD, pH adjusted to ca. 3.0 with HCl): 4560 µg/mL

Structure (SMILES): CS(=O)(=O)N1CCN(Cc2ccc3[nH]c(-c4cc5ccccc5[nH]c4=O)cc3c2)CC1 [Salt 1-11A]
- solubility ([4]; Acetonitrile): 63 µg/mL
- solubility ([4]; Isopropanol): 20 µg/mL
- solubility ([4]; Water): 173 µg/mL

Structure (SMILES): CS(=O)(=O)N1CCN(Cc2ccc3[nH]c(-c4cc5ccccc5[nH]c4=O)cc3c2)CC1 [Salt 1-11B]
- solubility ([4]; Acetonitrile): 30 µg/mL
- solubility ([4]; Isopropanol): 3 µg/mL
- solubility ([4]; Water): 90 µg/mL

Structure (SMILES): CS(=O)(=O)N1CCN(Cc2ccc3[nH]c(-c4cc5ccccc5[nH]c4=O)cc3c2)CC1 [Sulfate salt of 1-11]
- pH [2]: 1.5
- solubility [2]: 130 µg/mL
